The values below come from US10774112B2, “Biomimetic peptide and biodegradable delivery platform for the treatment of angiogenesis- and lymphangiogenesis-dependent diseases” (THE JOHNS HOPKINS UNIVERSITY, priority 2013, dated 2020).

Test [1] deals with human umbilical vein endothelial cells (HUVEC). The test can be described thus: Proliferation assay (WST-1), HUVEC. Particulars: FIG. 1. Format: cell-based. The procedure:
A colorimetric based proliferation assay using WST-1 (Roche, 11644807001) proliferation reagent was carried out using HREC cells, HUVEC cells, and the breast cancer cells MDA-MB-231, MCF-7, and SUM149. 2000 cells/well were plated in 96-well plates and allowed to adhere overnight. On the following day, the media was exchanged with fully supplemented media containing peptides or equivalent DMSO vehicle for the controls. Three days later, the media containing the peptides was replaced with serum-free EBM-2 media containing WST-1 reagent and the plates were incubated for four hours as per the manufacturer's recommendations. Changes in color, due to the formazan dye resulted from the cleavage of the tetrazolium salt WST-1 by the mitochondrial succinate-tetrazolium reductase, were read on a Victor V fluorescence plate reader (Perkin Elmer, Mass.) by measuring the absorbance at 450 nm. Dose response curves of percent live cells (in comparison to untreated cells, but incubated in complete media with 0.2% DMSO) were created. Assays were performed in at least two independent replicates and each replicate was performed using three experimental triplicates.

Test [2] shares this test system. Nature of the test: Adhesion assay (RT-CIM), HUVEC. Format: cell-based. Particulars: FIG. 1. As to the method:
Similar to the migration assays, the inhibition activity of the peptide in cellular adhesion was assessed using the RT-CIM technology. In this case, 25,000 cells/well were plated in 16 wells E-plates (Roche, Basel Switzerland) in the presence or absence of the peptide. The adhesion was monitored over time (3 hours) by measuring changes in the electrical impedance, which is a direct measure of the cells adhering on the electrodes. Assays were performed in at least two independent replicates and each replicate was performed using two experimental duplicates.

The next test concerns c-Met. Nature of the test: Phosphorylation of c-Met in vivo. Particulars: FIG. 10.
The subject of the next test is angiogenesis. Nature of the test: Angiogenesis in vivo (lectin staining, IHC).
The next test deals with MDA-MB-231-luc tumors. The test can be described thus: TCM-induced metastasis model. It is filed as in vivo, mice. As to the method: TCM-Induced Metastasis Model.
Before tumor inoculation, athymic nude mice (female 5-6 weeks, 18-20 g) were treated with 50 μL TCM or SFM subcutaneously through the scruff for 2 weeks. After 2 weeks of TCM treatment, MDA-MB-231-luc-D3H2LN tumor xenografts were established in the same animals; the cells (2×10^6) were mixed with 50 μL complete media (RPMI-1640 supplemented with 10% FBS), and 50 μL Matrigel (High Concentrated, BD Biosciences) and injected into the upper inguinal mammary fat pad of the animals under anesthesia (50 mg/kg ketamine+5 mg/kg acepromazine in PBS, 50 μL/animal, intraperitoneally dosed). The primary tumor size was measured by using a caliper, and the volume w calculated, using the formula: V=0.52×a×b^2, where ‘a’ is the long axis, and ‘b’ is the short axis of the tumor. Animals were also imaged every week to track anterior tumor metastases, using the IVIS Xenogen 200 optical imager (Xenogen, Alameda, Calif.) after intraperitoneal injection of d-luciferin (Caliper 150 mg/kg). 100 μL D-luciferin (twice diluted) was intraperitoneally dosed on both sides of the abdomen (total 200 μL/animals) to prevent i.p. injection failure. […] Luciferase-mediated photon flux was quantified by using Living Image® 3D Analysis (Xenogen), and the average photon flux was obtained from eight lungs, eight brains, and 14-16 LNs as described before. […]

Test [3] concerns VEGF-induced neovascularization. The test can be described thus: rho/VEGF transgenic mice with VEGF-induced neovascularization. It is filed as in vivo. Particulars: compared to a control; FIGS. 13C-E. The procedure: Transgenic Mice with VEGF-Induced Neovascularization.
At postnatal day 14, hemizygous rho/VEGF mice were given an intraocular injection of 1 μL of 5% DMSO/water, 1 μL of 5% DMSO/water containing 0.1 μg or 1 μg of SP2043 (SEQ ID No: 1) in one eye. Intraocular injections were done under a dissecting microscope with a Harvard Pump Microinjection System (Harvard Apparatus, Holliston, Mass.) and pulled glass micropipettes. At postnatal day 21, the total area of subretinal neovascularization (NV) per eye was quantified. Briefly, mice were anesthetized and perfused with 1 mL of PBS containing 25 mg/mL of fluorescein-labeled dextran (average molecular weight of 2×10^6, Sigma-Aldrich, St. Louis, Mo.). The eyes were removed and fixed for 1 hour in 10% phosphate-buffered formalin. […] The retinas were examined by fluorescence microscopy at 200× magnification, which provides a narrow depth of field so that when focusing on NV on the outer surface of the retina, the remainder of the retinal vessels are out of focus, allowing easy delineation of the NV. […] By using Image analysis software (Image-Pro Plus; Media Cybernetics, Silver Spring, Md.), an investigator masked with respect to treatment group allowed the software to recognize and calculated the total area of subretinal NV per eye as previously described.

“LRRFSTAPFAFIDINDVINF (Artificial sequence based on human Collagen Type IV protein) [SP2043]”: the “proliferation of HUVEC” value in test [1] was “inhibit”. Further, the “adhesion of HUVEC” value in test [2] was “inhibit”. Moreover, in the test with c-Met, the “phosphorylation of c-Met in vivo” value was “inhibit”. Also, the angiogenesis in vivo entry with angiogenesis (FIG. 10) is “inhibit”. Also, in the test on angiogenesis (FIG. 11), the “angiogenesis as seen by lectin staining for IHC” value was “inhibited”. Further, the “metastasis of MDA-MB-231-luc tumors to lymph nodes, vimentin antibody staining for human cells” value in the test on MDA-MB-231-luc tumors (FIG. 12B) is on record as “inhibited”. Also, the “metastasis of MDA-MB-231-luc tumors to multiple organs, photon flux from tumor cells” value in the test on MDA-MB-231-luc tumors (tumor-conditioned media pre-treated metastasis model, FIG. 12A) is recorded as “inhibited”. For the same sequence, the “neovascularization in rho-VEGF mouse model” value in test [3] is “inhibited”.
